The numbers were not newly measured in patent US6627427B1, “Heterologous production of 15-methyl-6-deoxyerthronolide B” (Kosan Biosciences, Inc., priority 1999, dated 2003), which cites them from elsewhere.

The subject of data set [1] is Gram-positive pathogens. The following applies: including those carrying inducible MLS resistance and many S. pneumoniae and S. pyogenes strains carrying constitutive MLS resistance.
For data set [2] the following is noted: statement with reference to PCT publications.

The structures appear in SMILES notation.

`CC[C@H]1OC(=O)[C@H](C)C(=O)[C@H](C)[C@@H](O[C@@H]2O[C@H](C)C[C@H](N(C)C)[C@H]2O)[C@](C)(OC/C=C/c2cnc3ccccc3c2)C[C@@H](C)C(=O)[C@H](C)[C@H]2NC(=O)O[C@@]21C` [ABT-773]: the “activity against Gram-positive pathogens” value in data set [1] is on record as “excellent activity”.
Take `CC[C@H]1OC(=O)[C@H](C)C(=O)[C@H](C)[C@@H](O[C@@H]2O[C@H](C)C[C@H](N(C)C)[C@H]2O)[C@](C)(OC)C[C@@H](C)C(=O)[C@H](C)[C@H]2N(CCCCn3cnc(-c4cccnc4)c3)C(=O)O[C@]12C` [HMR 3647]: in data set [1], the “activity against Gram-positive pathogens” value is given as “excellent activity”.
With `CCC[C@H]1OC(=O)[C@H](C)[C@@H](O[C@@H]2C[C@@](C)(OC)[C@@H](O)[C@H](C)O2)[C@H](C)[C@@H](O[C@@H]2O[C@H](C)C[C@H](N(C)C)[C@H]2O)[C@](C)(O)C[C@@H](C)C(=O)[C@H](C)[C@@H](O)[C@]1(C)O` [Propyl erythromycin A, 15-methylerythromycin A], the antibiotic activity entry in data set [2] is recorded as “potent antibiotic activity”.
